“And” between values parts separate entries of the source, which are not always exact repeats. Equal entries are not always repeated. Toxic doses and inconclusive results are not listed. Rule for the calls: active = survival T/C of 150% or more; inactive = T/C below 125% in these data.
Tested on: B6C3F1 mice, Lewis lung carcinoma iv, survival T/C
Assay: NCI In Vivo Anticancer Drug Screen. Data for tumor model Lewis Lung Carcinoma (intravenous) in B6C3F1 mice
Conditions: endpoint: median survival time, higher = longer survival
Summary of the method: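 Read-out is survival, expressed as the treated-group measurement over the vehicle control-group measurement. Animals bore a transplantable tumor and were given compound.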

[1] = dose: 12.5 mg/kg/injection, schedule: Q01DX009 (ip), vehicle: Klucel (hydroxypropylcellulose) (HPC)
[2] = dose: 25.0 mg/kg/injection, schedule: Q01DX009 (ip), vehicle: Klucel (hydroxypropylcellulose) (HPC)
[3] = dose: 50.0 mg/kg/injection, schedule: Q01DX009 (ip), vehicle: Klucel (hydroxypropylcellulose) (HPC)
[4] = dose: 3.12 mg/kg/injection, schedule: Q01DX009 (ip), vehicle: Klucel (hydroxypropylcellulose) (HPC)
[5] = dose: 6.25 mg/kg/injection, schedule: Q01DX009 (ip), vehicle: Klucel (hydroxypropylcellulose) (HPC)
[6] = dose: 25.0 mg/kg/injection, schedule: Q01DX009 (ip), vehicle: saline
[7] = dose: 50.0 mg/kg/injection, schedule: Q01DX009 (ip), vehicle: saline
[8] = dose: 100.0 mg/kg/injection, schedule: Q01DX009 (ip), vehicle: saline
[9] = dose: 12.5 mg/kg/injection, schedule: Q01DX009 (ip), vehicle: saline with Tween-80
[10] = dose: 25.0 mg/kg/injection, schedule: Q01DX009 (ip), vehicle: saline with Tween-80
[11] = dose: 50.0 mg/kg/injection, schedule: Q01DX009 (ip), vehicle: saline with Tween-80
[12] = dose: 100.0 mg/kg/injection, schedule: Q01DX009 (ip), vehicle: saline with Tween-80
[13] = dose: 200.0 mg/kg/injection, schedule: Q01DX009 (ip), vehicle: saline with Tween-80
[14] = dose: 400.0 mg/kg/injection, schedule: Q01DX009 (ip), vehicle: saline with Tween-80
[15] = dose: 6.25 mg/kg/injection, schedule: Q01DX009 (ip), vehicle: saline with Tween-80

Measured: T/C

OCC1OC(n2cnc3c(NO)ncnc32)C(O)C1O (centres undefined)
inactive: [1] 102 % of control | [2] 97 % of control | [3] 109 % of control | dose: 100.0 mg/kg/injection, schedule: Q01DX009 (ip), vehicle: Klucel (hydroxypropylcellulose) (HPC) 105 % of control | dose: 200.0 mg/kg/injection, schedule: Q01DX009 (ip), vehicle: Klucel (hydroxypropylcellulose) (HPC) 110 % of control | dose: 400.0 mg/kg/injection, schedule: Q01DX009 (ip), vehicle: Klucel (hydroxypropylcellulose) (HPC) 109 % of control

CCCC(=O)OCc1cc(=O)n(C)c2c3c4c(cc12)c(C)cc(=O)n4CO3
inactive: [4] 91 % of control | [5] 97 % of control | [1] 92 % of control | [3] 118 % of control

CN1CCN(c2ccc([N+](=O)[O-])c3no[n+]([O-])c23)CC1
inactive: dose: 5.0 mg/kg/injection, schedule: Q01DX009 (ip), vehicle: saline with Tween-80 120 % of control | dose: 10.0 mg/kg/injection, schedule: Q01DX009 (ip), vehicle: saline with Tween-80 111 % of control

C=C1C(=O)OCC1(C(=O)OCC)C(=O)OCC
inactive: dose: 4.0 mg/kg/injection, schedule: Q01DX009 (ip), vehicle: saline with Tween-80 95 % of control | dose: 8.0 mg/kg/injection, schedule: Q01DX009 (ip), vehicle: saline with Tween-80 103 % of control | dose: 16.0 mg/kg/injection, schedule: Q01DX009 (ip), vehicle: saline with Tween-80 105 % of control | dose: 32.0 mg/kg/injection, schedule: Q01DX009 (ip), vehicle: saline with Tween-80 96 % of control

c1cc2n(n1)CCN2
inactive: [6] 107 % of control | [7] 97 % of control | [8] 97 % of control

CCOC(=O)C1(c2ccccc2)C(=O)Oc2ccccc21 (centres undefined)
inactive: [9] 97 % of control | [10] 97 % of control | [11] 96 % of control | [12] 97 % of control | [13] 99 % of control | [14] 99 % of control

Nc1ncnc2c1cnn2Cc1ccc(Cl)cc1
inactive: [6] 94 % of control | [7] 106 % of control | [8] 111 % of control | dose: 200.0 mg/kg/injection, schedule: Q01DX009 (ip), vehicle: saline 93 % of control

NC(=S)N/N=C\c1ncccc1OCc1cccc(N)c1
inactive: dose: 12.5 mg/kg/injection, schedule: Q01DX009 (ip), vehicle: distilled water + Tween-80 103 % of control | dose: 25.0 mg/kg/injection, schedule: Q01DX009 (ip), vehicle: distilled water + Tween-80 109 % of control | dose: 50.0 mg/kg/injection, schedule: Q01DX009 (ip), vehicle: distilled water + Tween-80 109 % of control | dose: 100.0 mg/kg/injection, schedule: Q01DX009 (ip), vehicle: distilled water + Tween-80 102 % of control | dose: 200.0 mg/kg/injection, schedule: Q01DX009 (ip), vehicle: distilled water + Tween-80 121 % of control

COc1cc(NCc2ccc3nc(N)nc(N)c3c2C)cc(OC)c1OC
inactive: dose: 3.12 mg/kg/injection, schedule: Q01DX009 (ip), vehicle: water 94 % of control | dose: 6.25 mg/kg/injection, schedule: Q01DX009 (ip), vehicle: water 102 % of control | dose: 12.5 mg/kg/injection, schedule: Q01DX009 (ip), vehicle: water 97 % of control and 124 % of control | dose: 25.0 mg/kg/injection, schedule: Q01DX009 (ip), vehicle: water 101 % of control and 111 % of control | dose: 50.0 mg/kg/injection, schedule: Q01DX009 (ip), vehicle: water 113 % of control and 117 % of control

Cc1ccc(N)c(N)c1
inactive: [10] 96 % of control | [11] 98 % of control | [12] 108 % of control | [13] 103 % of control

N#C[Se-].c1ccc([Te+](c2ccccc2)c2ccccc2)cc1
inactive: dose: 1.56 mg/kg/injection, schedule: Q01DX009 (ip), vehicle: Klucel (hydroxypropylcellulose) (HPC) 97 % of control | [4] 97 % of control | [5] 97 % of control | [1] 100 % of control | [2] 86 % of control

COc1cccc2c1C(=N)c1c(O)c3c(c(O)c1C2=O)C[C@@](O)(C(C)=O)C[C@@H]3OC1CC(N)C(O)C(C)O1 (some centres undefined)
inactive: dose: 1.0 mg/kg/injection, schedule: Q01DX009 (ip), vehicle: saline 103 % of control | dose: 2.0 mg/kg/injection, schedule: Q01DX009 (ip), vehicle: saline 96 % of control | dose: 4.0 mg/kg/injection, schedule: Q01DX009 (ip), vehicle: saline 105 % of control

O=c1[nH]c(=O)n(C2CC(O)C(CO)O2)cc1F (centres undefined)
inactive: dose: 147.0 mg/kg/injection, schedule: Q04DX003 (ip), vehicle: saline 102 % of control | dose: 210.0 mg/kg/injection, schedule: Q04DX003 (ip), vehicle: saline 118 % of control

C[C@@H]1C[C@@H]([C@H](O)CC2CC(=O)NC(=O)C2)C(=O)[C@@H](C)C1
inactive: dose: 6.25 mg/kg/injection, schedule: Q01DX009 (ip), vehicle: saline 100 % of control | dose: 12.5 mg/kg/injection, schedule: Q01DX009 (ip), vehicle: saline 105 % of control | [6] 102 % of control

NC(=O)CCC(N)C(=O)O (centres undefined)
inactive: dose: 25.0 mg/kg/injection, schedule: Q01DX009 (ip), vehicle: suspension in saline 109 % of control | dose: 50.0 mg/kg/injection, schedule: Q01DX009 (ip), vehicle: suspension in saline 111 % of control | dose: 100.0 mg/kg/injection, schedule: Q01DX009 (ip), vehicle: suspension in saline 107 % of control | dose: 200.0 mg/kg/injection, schedule: Q01DX009 (ip), vehicle: suspension in saline 102 % of control | dose: 400.0 mg/kg/injection, schedule: Q01DX009 (ip), vehicle: suspension in saline 94 % of control

CC1(C)CC1(Br)Br
inactive: [15] 99 % of control | [9] 96 % of control | [10] 99 % of control | [11] 100 % of control | [12] 115 % of control | [13] 100 % of control

C1OCN2CSCC12 (centres undefined)
inactive: [9] 103 % of control | [10] 103 % of control | [11] 102 % of control | [12] 98 % of control | [13] 96 % of control | [14] 89 % of control

CCOC(=O)CNC(=O)CCCCSc1ncnc2nc[nH]c12
inactive: dose: 40.0 mg/kg/injection, schedule: Q01DX009 (ip), vehicle: Klucel (hydroxypropylcellulose) (HPC) 101 % of control | dose: 80.0 mg/kg/injection, schedule: Q01DX009 (ip), vehicle: Klucel (hydroxypropylcellulose) (HPC) 112 % of control | dose: 160.0 mg/kg/injection, schedule: Q01DX009 (ip), vehicle: Klucel (hydroxypropylcellulose) (HPC) 110 % of control | dose: 320.0 mg/kg/injection, schedule: Q01DX009 (ip), vehicle: Klucel (hydroxypropylcellulose) (HPC) 95 % of control | dose: 640.0 mg/kg/injection, schedule: Q01DX009 (ip), vehicle: Klucel (hydroxypropylcellulose) (HPC) 111 % of control

O=C(Nc1cccc(Cl)c1)ON1C(=O)C2C(C1=O)C1(Cl)C(Cl)C(Cl)C2(Cl)C1(Cl)Cl (centres undefined)
inactive: [10] 95 % of control | [11] 97 % of control | [12] 87 % of control

C/C=C(\C)c1cc(=O)c2c(C)cc3c(c2o1)C(=O)c1c(O)c(C2CC(C)(N(C)C)C(OC(C)=O)C(C)O2)cc(C2CC(N(C)C)C(O)C(C)O2)c1C3=O (centres undefined)
inactive: dose: 0.15 mg/kg/injection, schedule: Q01DX009 (ip), vehicle: suspension in saline 101 % of control | dose: 0.31 mg/kg/injection, schedule: Q01DX009 (ip), vehicle: suspension in saline 103 % of control | dose: 0.62 mg/kg/injection, schedule: Q01DX009 (ip), vehicle: suspension in saline 97 % of control | dose: 1.25 mg/kg/injection, schedule: Q01DX009 (ip), vehicle: suspension in saline 107 % of control | dose: 2.5 mg/kg/injection, schedule: Q01DX009 (ip), vehicle: suspension in saline 111 % of control | dose: 5.0 mg/kg/injection, schedule: Q01DX009 (ip), vehicle: suspension in saline 106 % of control

CCOC(=O)Nc1cc2c(c(N)n1)N=C(c1ccc(Cl)cc1Cl)CN2
inactive: [15] 97 % of control | [9] 113 % of control

COc1ccc(C[C@H](N)C(=O)NC2C(CO)OC(n3cnc4c(N(C)C)ncnc43)C2O)cc1 (some centres undefined)
inactive: dose: 5.0 mg/kg/injection, schedule: Q01DX009 (ip), vehicle: saline 99 % of control | dose: 10.0 mg/kg/injection, schedule: Q01DX009 (ip), vehicle: saline 104 % of control | dose: 20.0 mg/kg/injection, schedule: Q01DX009 (ip), vehicle: saline 114 % of control | dose: 40.0 mg/kg/injection, schedule: Q01DX009 (ip), vehicle: saline 109 % of control | dose: 80.0 mg/kg/injection, schedule: Q01DX009 (ip), vehicle: saline 114 % of control

— PubChem BioAssay AID276 (DTP/NCI, 2004)
